pIC50: −log10 of the molar value. Like-named read-outs stand apart in the source and are kept apart here.
Columns and labels:
HDAC8 = molecular target: T1, HDAC8 (Homo sapiens, UniProt Q9BY41); assay: HDAC isoform inhibition (BPS Bioscience)
T1 sequence (Q9BY41 1-377): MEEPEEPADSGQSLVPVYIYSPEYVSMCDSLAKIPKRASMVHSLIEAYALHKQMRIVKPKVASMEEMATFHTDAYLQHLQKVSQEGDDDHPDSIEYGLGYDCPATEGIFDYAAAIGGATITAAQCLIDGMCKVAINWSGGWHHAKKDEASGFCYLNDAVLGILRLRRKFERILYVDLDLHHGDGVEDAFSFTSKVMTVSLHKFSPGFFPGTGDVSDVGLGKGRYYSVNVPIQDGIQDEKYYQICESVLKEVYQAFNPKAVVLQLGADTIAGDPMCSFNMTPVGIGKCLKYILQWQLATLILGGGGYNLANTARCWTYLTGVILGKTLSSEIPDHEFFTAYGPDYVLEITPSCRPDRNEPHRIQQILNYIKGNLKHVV

Hep-G2 cells = assay: Immunoblotting of acetylated histone H4 and α-tubulin; assay type: cell-based, human; settings: for Acetylation status of histone H4 and α-tubulin: at 1/4 IC50 and 1/2 IC50
Excerpt: To determine the contributions of HDAC inhibition to the antiproliferative activities of the glycosylated HDACi compounds, immunoblotting was used to investigate the acetylation status of histone H4 and α-tubulin, biomarkers for HDAC class I and class IIb intracellular inhibition, respectively,[27] in Hep-G2 cells in response to exposure to representative compounds STR-V-53, STR-V-114, and STR-I-195. We used SAHA as a positive control for HDAC inhibition and GAPDH level as a protein loading control.
Figure 3 Effects of STR-V-53 on intracellular markers of HDAC inhibition, antitumor immune response, and apoptosis. (a) STR-V-53 upregulates the levels of acetylated H4 and tubulin in Hep-G2 cells. Hep-G2 cells were treated with DMSO or 0.1% DMSO solution of SAHA (1.25 μM) and STR-V-53 (1.25 μM, 2.5 μM). Cells were treated for 5 h before lysis. Data are from two independent experiments. (b) STR-V-53 upregulates PD-L1 and downregulates PD-1 expressions in Hep-G2 cells. Cells were treated with DMSO or 0.1% DMSO solution of SAHA (5 μM and 10 μM) and STR-V-53 (10 and 20 μM) for 24 h. (c) STR-V-53 and SAHA caused upregulation of the levels of CD54 in the Hep-G2 cell line. Cells were treated with DMSO or 0.1% DMSO solution of SAHA (5 and 10 μM) and STR-V-53 (5, 10, and 20 μM) for 24 h. […] Cells were treated with DMSO or 0.1% DMSO solution of SAHA (5 μM) and STR-V-53 (10 and 20 μM).
10-017-CV), supplemented with 10% fetal bovine serum (FBS) (Corning, 35-010-CV). Hep-G2 cells were cultured in phenol red-free Minimum Essential Medium (MEM) (Corning, 17-305-CV), supplemented with 10% fetal bovine serum (FBS). SK-Hep-1 in ATCC-formulated EMEM (ATCC® 30–2003™); Huh-7 in DMEM (containing 4 mM L-glutamine and 1 g/L glucose) with […]
Kupffer Cell Media (Sekisui XenoTech, LLC, Cat. #K8700). Cells were seeded into a 96-well plate (2000 counts/100uL) for 24 h prior to treatment and then treated with various drug concentrations for 72 h. All drugs were dissolved in media with DMSO concentration maintained at 1%. The effect of compounds on cell viability was measured using the MTS assay (CellTiter 96 Aqueous One Solution and CellTiter 96 Non-Radioactive Cell Proliferation Assays, Promega, Madison, WI) as described by the manufacturer. IC50s were determined using Prism GraphPad 8.
Western blot protocol was described in our previous works 24,25. In brief, Hep-G2 cells were seeded into a 6-well plate at 1*106/well in MEM for 24-48 h prior to treatment. Various concentrations of SAHA, STR-V-53, STR-V-114, and STR-I-195 solutions in DMSO were added to the cell culture such that the final DMSO level was 0.1%. Cells were treated for 24 h, washed with cold PBS, and lysed with RIPA buffer (120 µL) (VWR, VWRVN653 -100ML) containing phosphatase inhibitor (Fisher Thermo, A32957) and protease inhib itor (Fisher Thermo, A32955). The cell lysates were scraped, collected, and vortexed for 15 s, followed by sonication for 60 s. The lysate was centrifuged at 14000x rpm for 10 min, and the supernatants were collected. The total protein concentration was determined using a BCA protein assay kit (BioVision, K813-2500). Based on the results from the […], the lysates were diluted to make equal protein concentration, and 40 µg of each lysate was loaded to each wel l of the TGX […]
MIDI 4-20% gel (Biorad, cat. 5671093) and ran at 150 V for 70 min. […] After washing with TBS-T 3x5 mins, bands were quantified using the Odyssey CLx Image system. […]

HDAC2 = HDAC2 (Homo sapiens, UniProt Q92769); assay: HDAC isoform inhibition (BPS Bioscience)
HDAC2, sequence (Q92769 whole entry, canonical isoform): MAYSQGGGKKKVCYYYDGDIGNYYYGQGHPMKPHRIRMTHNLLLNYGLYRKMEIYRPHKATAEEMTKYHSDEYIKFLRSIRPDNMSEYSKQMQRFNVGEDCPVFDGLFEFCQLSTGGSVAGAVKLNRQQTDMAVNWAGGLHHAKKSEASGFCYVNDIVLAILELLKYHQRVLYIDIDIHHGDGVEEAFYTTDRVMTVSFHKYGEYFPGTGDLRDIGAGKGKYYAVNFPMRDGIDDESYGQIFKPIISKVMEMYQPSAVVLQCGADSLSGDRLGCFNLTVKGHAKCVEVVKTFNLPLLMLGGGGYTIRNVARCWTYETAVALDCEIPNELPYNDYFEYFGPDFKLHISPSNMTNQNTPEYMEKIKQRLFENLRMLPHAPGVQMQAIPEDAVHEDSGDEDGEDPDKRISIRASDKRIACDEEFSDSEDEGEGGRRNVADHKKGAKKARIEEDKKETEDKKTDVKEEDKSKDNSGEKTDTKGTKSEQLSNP

SMILES: O=C(CCCCCCn1cc(-c2ccc3cc(O[C@H]4O[C@H](CO)[C@@H](O)[C@H](O)[C@H]4O)ccc3c2)nn1)NO [STR-V-114]
- pIC50 (HDAC8; read-out: HDAC8 IC50, Table S1): 5.67
- Acetylation status of histone H4 and α-tubulin (Hep-G2 cells): induced accumulation of acetylated H4 and acetylated tubulin
- pIC50 (HDAC2; read-out: HDAC2 IC50, Table S1): 7.21

SMILES: O=C(CCCCCCn1cc(-c2ccc(O[C@H]3O[C@H](CO)[C@@H](O)[C@H](O)[C@H]3O)cc2)nn1)NO [STR-V-53]
- pIC50 (HDAC8): 6.07
- Acetylation status of histone H4 and α-tubulin (Hep-G2 cells): induced accumulation of acetylated H4 and acetylated tubulin
- pIC50 (HDAC2): 7.22

SMILES: O=C(CCCCCCn1cc(-c2ccc(O[C@@H]3O[C@H](CO)[C@@H](O)[C@H](O)[C@H]3O)cc2)nn1)NO [STR-I-195]
- pIC50 (HDAC8; read-out: HDAC8 IC50, Table S1): 6.33
- Acetylation of H4 and α-Tubulin (Hep-G2 cells; 0.5 μM): did not show significant acetylation
- Acetylation of H4 (Hep-G2 cells; 1.25 μM and 2.5 μM): mild acetylation
- Acetylation of α-Tubulin (Hep-G2 cells; 1.25 μM and 2.5 μM): significant acetylation
- pIC50 (HDAC2; read-out: HDAC2 IC50, Table S1): 7.54

Reference: article PMC11475281, “A Novel Liver Cancer-Selective Histone Deacetylase Inhibitor Is Effective against Hepatocellular Carcinoma and Induces Durable Responses with Immunotherapy” (ACS Pharmacology & Translational Science, 2024)
